{"source": "patent US20260103473A1", "about": "(Avanc Pharmaceutical Co., Ltd., priority 2022, published 2026)", "format_in_all_cases": "physicochemical", "key": {"[1]": {"assay": "Test of solubility of salts of the compound of formula (I) in water", "conditions": "room temperature, Table 10; for Solution state: after addition of water; for solubility: thermodynamic from solid, water, monocitrate vs dicitrate", "method": "About 4-20 mg of salt of the compound of formula (I) was weighed, and the salt was added to the EP tube. A certain amount of solvent was added successively at room temperature. The solution was stirred, and it was observed whether the solid was completely dissolved. If the solid had not been completely dissolved after 10.0 mL of solvent was added, the experiment was stopped. The solubility of the compound in the solvent was estimated based on the volume of solvent used when the solid was completely dissolved."}, "[2]": {"assay": "Hygroscopicity of salts of the compound of formula (I) (weight gain at 95% humidity)", "conditions": "humidity 50% raised to 95% in increments of 15%, 60 min each", "method": "The compound of formula (I) was placed in a humid environment, wherein the initial humidity of the environment was 50%, and the humidity was increased to 95% in increments of 15%. The maintenance time for each humidity gradient was 60 min. After the ambient humidity was maintained at 95% for 60 min, the weight gain of each salt form was tested to determine the hygroscopicity of the corresponding salt form.\nAccording to the test procedures of Test Example 2, the solubility of the monocitrate salt and dicitrate salt of the compound of formula (I) were respectively tested."}, "[3]": {"assay": "Moisture absorption study of crystal forms by dynamic vapor sorption (DVS) with XRPD afterwards", "conditions": "for weight increase at 80% RH during the adsorption process / weight increase at 95% RH: DVS, with reference to the mass at 50% RH; for XRPD pattern after DVS testing: after humidity cycle 50%-95%-50%", "method": "Dynamic vapor sorption and desorption analysis of crystal forms were performed using DVS Intrinsic (SMS, UK) to evaluate the hygroscopicity of the crystal forms. The gradient mode was used for the test. The humidity change was 50%-95%-50%. The humidity change amount of each gradient was 15%. The gradient endpoint was determined in the dm/dt manner, with dm/dt less than 0.002% and maintained for 10 minutes as the gradient endpoint, or the maximum maintenance time of each gradient was 60 min. After the test was completed, XRPD analysis was performed on the sample to confirm whether the solid form changed."}, "[4]": {"assay": "Description of crystal form A: hygroscopicity and solubility in solvents"}, "[5]": {"assay": "Stability study of crystal forms (XRPD characterization)", "conditions": "high temperature (60° C.), high humidity (25° C./92.5% RH), illumination (25° C./4500 Lux), accelerated (40° C./75% RH); up to 15 days", "method": "Stability studies under conditions of high temperature (60° C.), high humidity (25° C./92.5% RH), illumination (25° C./4500 Lux), and accelerated condition (40° C./75% RH) were performed on the crystal forms of the compound of formula (I). Samples were taken for XRPD characterization on the 7th and 15th days respectively.\nThe crystal form G was stored at room temperature for 1 day."}, "[6]": {"assay": "Dynamic solubility test in biological media and water", "conditions": "for solubility at 0.5 h / solubility at 2 h / solubility at 24 h: thermodynamic from solid", "text": "Wherein, FaSSIF could be used to simulate the intestinal fluid in the small intestine in the human pre-prandial hunger state; FeSSIF could be used to simulate the intestinal fluid in the small intestine in the human post-prandial satiety state; FaSSGF could be used to simulate the stomach in the empty stomach in the human hunger state."}, "[7]": {"conditions": "monocitrate vs dicitrate, Table 11"}}, "note": "Where a name gives a salt, the structure may show the parent alone."}
{"compound": "CN1CCN(C2CCN(c3ccc(Nc4ncc5sc(C(=O)N(C)C)c(C6CCCC6)c5n4)nc3)CC2)CC1", "note": "[Dicitrate salt]", "values": [{"measurement": "Solution state", "setting": "[1]", "result": "clear"}, {"measurement": "solubility", "setting": "[1]", "result": "> 33000", "unit": "µg/mL"}, {"measurement": "Weight gain at 95% humidity", "setting": "[2]; [7]", "result": 0.64, "unit": "%"}]}
{"compound": "CN1CCN(C2CCN(c3ccc(Nc4ncc5sc(C(=O)N(C)C)c(C6CCCC6)c5n4)nc3)CC2)CC1.O=C(O)CC(O)(CC(=O)O)C(=O)O", "note": "[Monocitrate salt]", "values": [{"measurement": "Solution state", "setting": "[1]", "result": "clear"}, {"measurement": "solubility", "setting": "[1]", "result": "> 33000", "unit": "µg/mL"}, {"measurement": "Weight gain at 95% humidity", "setting": "[2]; [7]", "result": 3.45, "unit": "%"}]}
{"compound": "CN1CCN(C2CCN(c3ccc(Nc4ncc5sc(C(=O)N(C)C)c(C6CCCC6)c5n4)nc3)CC2)CC1", "note": "[crystal form A]", "values": [{"measurement": "weight increase at 80% RH during the adsorption process", "setting": "[3]", "result": 0.25, "unit": "%"}, {"measurement": "weight increase at 95% RH", "setting": "[3]", "result": 0.64, "unit": "%"}, {"measurement": "XRPD pattern after DVS testing", "setting": "[3]", "result": "did not change significantly"}, {"measurement": "hygroscopicity (description)", "setting": "[4]", "result": "slightly hygroscopic"}, {"measurement": "solubility (description)", "setting": "[4]; 0.1 mol/L hydrochloric acid solution", "result": "readily soluble"}, {"measurement": "solubility (description)", "setting": "[4]; Water", "result": "readily soluble"}, {"measurement": "solubility (description)", "setting": "[4]; acetic acid", "result": "readily soluble"}, {"measurement": "solubility (description)", "setting": "[4]; ethanol", "result": "nearly insoluble"}, {"measurement": "solubility (description)", "setting": "[4]; methanol", "result": "slightly soluble"}, {"measurement": "crystal form transformation by XRPD", "setting": "[5]", "result": "without any crystal form transformation occurring"}, {"measurement": "XRPD of the remaining solid", "setting": "[6]; FaSSGF", "result": "No solid remained"}, {"measurement": "Final pH", "setting": "[6]; FaSSGF, initial pH 1.6", "result": 2.5}, {"measurement": "XRPD of the remaining solid", "setting": "[6]; FaSSIF", "result": "No solid remained"}, {"measurement": "Final pH", "setting": "[6]; FaSSIF, initial pH 6.5", "result": 4.3}, {"measurement": "XRPD of the remaining solid", "setting": "[6]; FeSSIF", "result": "No solid remained"}, {"measurement": "Final pH", "setting": "[6]; FeSSIF, initial pH 5.0", "result": 4.6}, {"measurement": "Final pH", "setting": "[6]; Water", "result": 3.8}, {"measurement": "XRPD of the remaining solid", "setting": "[6]; Water", "result": "No solid remained"}, {"measurement": "solubility at 0.5 h", "setting": "[6]; fassgf or other biorelevant, FaSSGF, pH 1.6, 0.5 h", "result": "> 5470", "unit": "µg/mL"}, {"measurement": "solubility at 2 h", "setting": "[6]; fassgf or other biorelevant, FaSSGF, pH 1.6, 2 h", "result": "> 5480", "unit": "µg/mL"}, {"measurement": "solubility at 24 h", "setting": "[6]; fassgf or other biorelevant, FaSSGF, pH 1.6, 24 h", "result": "> 5380", "unit": "µg/mL"}, {"measurement": "solution state after suspension for 24 h", "setting": "[6]; four media (FaSSIF, FeSSIF, FaSSGF, water)", "result": "still clear"}, {"measurement": "time to dissolve", "setting": "[6]; suspended in four media (FaSSIF, FeSSIF, FaSSGF, water)", "result": "≤ 0.5", "unit": "h"}, {"measurement": "solubility at 0.5 h", "setting": "[6]; FaSSIF, pH 6.5, 0.5 h", "result": "> 5150", "unit": "µg/mL"}, {"measurement": "solubility at 2 h", "setting": "[6]; FaSSIF, pH 6.5, 2 h", "result": "> 5110", "unit": "µg/mL"}, {"measurement": "solubility at 24 h", "setting": "[6]; FaSSIF, pH 6.5, 24 h", "result": "> 5180", "unit": "µg/mL"}, {"measurement": "solubility at 0.5 h", "setting": "[6]; FeSSIF, pH 5.0, 0.5 h", "result": "> 5460", "unit": "µg/mL"}, {"measurement": "solubility at 2 h", "setting": "[6]; FeSSIF, pH 5.0, 2 h", "result": "> 5480", "unit": "µg/mL"}, {"measurement": "solubility at 24 h", "setting": "[6]; FeSSIF, pH 5.0, 24 h", "result": "> 5470", "unit": "µg/mL"}, {"measurement": "solubility at 0.5 h", "setting": "[6]; Water, 0.5 h", "result": "> 5540", "unit": "µg/mL"}, {"measurement": "solubility at 2 h", "setting": "[6]; Water, 2 h", "result": "> 5450", "unit": "µg/mL"}, {"measurement": "solubility at 24 h", "setting": "[6]; Water, 24 h", "result": "> 5480", "unit": "µg/mL"}]}
{"compound": "CN1CCN(C2CCN(c3ccc(Nc4ncc5sc(C(=O)N(C)C)c(C6CCCC6)c5n4)nc3)CC2)CC1", "note": "[crystal form B]", "values": [{"measurement": "weight increase at 80% RH during the adsorption process", "setting": "[3]", "result": 0.24, "unit": "%"}, {"measurement": "weight increase at 95% RH", "setting": "[3]", "result": 0.69, "unit": "%"}, {"measurement": "XRPD pattern after DVS testing", "setting": "[3]", "result": "did not change significantly"}, {"measurement": "crystal form transformation by XRPD", "setting": "[5]", "result": "did not undergo crystal form transformation"}]}
{"compound": "CN1CCN(C2CCN(c3ccc(Nc4ncc5sc(C(=O)N(C)C)c(C6CCCC6)c5n4)nc3)CC2)CC1", "note": "[crystal form C]", "values": [{"measurement": "weight increase at 80% RH during the adsorption process", "setting": "[3]", "result": 0.42, "unit": "%"}, {"measurement": "weight increase at 95% RH", "setting": "[3]", "result": 3.45, "unit": "%"}, {"measurement": "XRPD pattern after DVS testing", "setting": "[3]", "result": "did not change significantly"}, {"measurement": "crystal form transformation by XRPD", "setting": "[5]", "result": "did not undergo crystal form transformation"}]}
{"compound": "CN1CCN(C2CCN(c3ccc(Nc4ncc5sc(C(=O)N(C)C)c(C6CCCC6)c5n4)nc3)CC2)CC1", "note": "[crystal form D]", "values": [{"measurement": "weight increase at 80% RH during the adsorption process", "setting": "[3]", "result": 0.85, "unit": "%"}, {"measurement": "weight increase at 95% RH", "setting": "[3]", "result": 4.45, "unit": "%"}, {"measurement": "XRPD pattern after DVS testing", "setting": "[3]", "result": "did not change significantly"}, {"measurement": "crystal form transformation by XRPD", "setting": "[5]", "result": "did not undergo significant crystal form transformation"}]}
{"compound": "L-Tartrate", "values": [{"measurement": "Weight gain at 95% humidity", "setting": "[2]; Table 9", "result": 8.18, "unit": "%"}]}
